Results as given in article PMC8765781, “A platform of assays for the discovery of anti-Zika small-molecules with activity in a 3D-bioprinted outer-blood-retina model” (PLoS ONE, 2022).
Like-named read-outs stand apart in the source and are kept apart here.

What was measured:
[1] = test system: ZIKV-RLuc (Cambodian strain FSS13025); experiment: microbe, parasite or virus in culture; type: cell-based, Zika virus
[2] = Zika virus, Vero, read-out: Log AC50 (M) (converted)

| Compound | Log AC50 (M) (Vero cells) | CC-v2 (curve class classification v2 of the dose response curve) [1] | Efficacy (difference between neutral response and maximum compound response) [1] | Max Resp (difference between neutral response and compound response for highest compound concentration) [1] | AC50 ([1]; Zika virus, Vero) [M] | AC50 [1, 2] [M] | AC50 (Vero cells) [µM] | AC50 [1] [M] | Log AC50 (M) [1] | Efficacy (difference between neutral response and maximum compound response) (Vero cells) | Max Resp (difference between neutral response and compound response for highest compound concentration) (Vero cells) | Curve class [1] | Efficacy [1] | Emax ([1]; Zika virus, Vero, read-out: Max response) [%] |
| --- | --- | --- | --- | --- | --- | --- | --- | --- | --- | --- | --- | --- | --- | --- |
| Cc1nc(Nc2ncc(C(=O)Nc3c(C)cccc3Cl)s2)cc(N2CCN(CCO)CC2)n1 [NCGC00181129-05] | -7.0699 | -1.1 | -120.53 | -95.603 | 8.51e-08 | 8.51e-08 |  |  |  |  |  |  |  |  |
| COC(=O)[C@]12CCC(C)(C)C[C@H]1[C@H]1C(=O)C=C3[C@@]4(C)C=C(C#N)C(=O)C(C)(C)[C@@H]4CC[C@@]3(C)[C@]1(C)CC2 [NCGC00186460-02] | -6.4327 | -1.1 | -99.409 | -99.593 | 3.69e-07 | 3.69e-07 | 0.369 |  |  |  |  |  |  |  |
| NC1(c2ccc(-c3nc4ccn5c(=O)[nH]nc5c4cc3-c3ccccc3)cc2)CCC1 [NCGC00186465-01] | -4.7327 | -2.1 | -117.339 | -99.979 | 1.85e-05 | 1.85e-05 | 18.5 |  |  |  |  |  |  |  |
| NC1(c2ccc(-c3nc4ccn5c(=O)[nH]nc5c4cc3-c3ccccc3)cc2)CCC1 [NCGC00186465-04] | -4.6827 | -2.1 | -108.058 | -98.999 |  |  |  | 2.08e-05 | -4.6827 |  |  |  |  |  |
| C=CC(=O)N1CCC[C@@H](n2nc(-c3ccc(Oc4ccccc4)cc3)c3c(N)ncnc32)C1 [NCGC00187912-02] | -5.0327 |  | -91.422 | -83.345 | 9.28e-06 | 9.27e-06 | 9.28 |  |  |  |  |  |  |  |
| O=C(NCc1ccccc1)c1csc(Nc2ccncn2)n1 [NCGC00187983-01] | -4.8327 | -2.1 | -99.244 | -100.568 | 1.47e-05 | 1.47e-05 | 14.7 |  |  |  |  |  |  |  |
| CC(NCc1ccc2c(c1)[nH]/c(=N\C(=O)c1ccc(-c3cn[nH]c3)s1)n2CC(C)(C)O)C(C)(C)C (stereo not shown) [NCGC00188382-05] | -5.8327 | -1.1 | -97.056 | -99.599 | 1.47e-06 | 1.47e-06 | 1.47 |  |  |  |  |  |  |  |
| ClC1=C(Cl)[C@]2(Cl)[C@@H]3[C@@H]4C[C@@H]([C@H]5O[C@@H]45)[C@@H]3[C@@]1(Cl)C2(Cl)Cl [NCGC00244579-01] | -4.1199 | -3 | -117.983 | -96.11 | 7.59e-05 | 7.59e-05 | 75.9 |  |  |  |  |  |  |  |
| CC(=O)O/N=C1\C(=O)N(Cc2cc(Cl)ccc2Cl)c2ccc(Cl)cc21 [NCGC00247668-01] | -4.7827 | -2.1 | -136.639 | -99.757 | 1.65e-05 | 1.65e-05 | 16.5 |  |  |  |  |  |  |  |
| N=c1c2c(-c3ccccc3)c(-c3ccccc3)n(Cc3ccccc3)c2ncn1C1CCC(O)CC1 (stereo not shown) [NCGC00247785-05] | -5.3045 | -1.1 | -97.244 | -99.645 | 4.96e-06 | 4.96e-06 | 4.96 |  |  |  |  |  |  |  |
| COc1c(C)cnc(Cn2cnc3c(Cl)nc(N)nc32)c1C [NCGC00247877-01] | -6.7327 | -1.2 | -34.341 | -31.198 | 1.85e-07 | 1.85e-07 | 0.185 |  |  |  |  |  |  |  |
| CCNC(=O)c1noc(-c2cc(C(C)C)c(O)cc2O)c1-c1ccc(CN2CCOCC2)cc1 [NCGC00247878-08] | -4.4327 | -2.3 | -68.402 | -90.15 | 3.69e-05 | 3.69e-05 | 36.9 |  |  |  |  |  |  |  |
| CCNC(=O)c1cc2c(-c3cc(OCCN4CCCC4)c(Cl)cc3Cl)nc(N)nc2s1 [NCGC00247879-01] |  |  |  |  |  |  |  |  |  | -14.131 | 2.045 | 4 | -14.131 | 2.04 |
| O=C(N[C@@H](c1ccccc1)[C@@H]1CCCCN1)c1cccc(C(F)(F)F)c1Cl [NCGC00247954-02] | -4.3699 | -2.1 | -87.335 | -99.352 | 4.27e-05 | 4.27e-05 | 42.7 |  |  |  |  |  |  |  |
| C1=C/COCc2cc(ccc2OCCN2CCCC2)Nc2nccc(n2)-c2cccc(c2)OCC/1 [NCGC00249346-02] | -5.9327 | -1.1 | -91.692 | -99.088 | 1.17e-06 | 1.17e-06 | 1.17 |  |  |  |  |  |  |  |
